# Values joined by “and” are separate entries in the source; they are usually repeats but may differ in a detail not shown here. Identical values can stand only once.
# Columns and labels:
# Assay in all cases: ≥ marks a high value that may be exact or a test limit, other limits are often not marked, values filed in µg/mL are converted to µM
# [1] = test system: Staphylococcus aureus ATCC 25923
# [2] = test system: Staphylococcus aureus ATCC 43300
# [3] = test system: Pseudomonas aeruginosa PAO1
# [4] = test system: Pseudomonas aeruginosa ATCC 27853
# [5] = test system: Pseudomonas aeruginosa ATCC 9027
# [6] = test system: Staphylococcus aureus ATCC 6538
# Bacillus subtilis = test system: Bacillus subtilis
# [7] = test system: Candida albicans ATCC 2002
# [8] = test system: Escherichia coli ATCC 25922
# [9] = test system: Staphylococcus aureus ATCC 29213
# [10] = test system: Candida albicans ATCC 90028
# [11] = test system: Bacillus subtilis ATCC 6633
# Escherichia coli = test system: Escherichia coli
smiles,measurement,setting,value
CC[C@H](C)[C@H](NC(=O)[C@H](CCCCN)NC(=O)[C@H](Cc1cnc[nH]1)NC(=O)[C@H](CC(N)=O)NC(=O)[C@H](Cc1c[nH]c2ccccc12)NC(=O)CNC(=O)[C@H](C)NC(=O)[C@H](CO)NC(=O)[C@@H](NC(=O)[C@@H](NC(=O)[C@@H](N)CS)C(C)C)[C@@H](C)CC)C(=O)N[C@@H](CCCN=C(N)N)C(=O)N[C@H]1CSSC[C@@H](C(=O)O)NC(=O)[C@H](CC(N)=O)NC(=O)CNC(=O)[C@H]([C@@H](C)O)NC(=O)[C@H](CC(C)C)NC(=O)[C@H](CCCCN)NC1=O [CVISAGWNHKIRCKLTGNC],MIC,[1],23.8 µM
same,MIC,[2],23.8 µM
same,MIC,[3],11.9 µM
same,MIC,[4],11.9 µM
CC(C)C[C@H](NC(=O)[C@H](C)NC(=O)[C@H](CCCCN)NC(=O)[C@H](CCCCN)NC(=O)[C@H](CC(C)C)NC(=O)[C@H](Cc1ccccc1)NC(=O)[C@H](CCCCN)NC(=O)[C@H](C)NC(=O)[C@H](CC(C)C)NC(=O)[C@H](Cc1ccccc1)NC(=O)[C@H](CCCCN)NC(=O)[C@H](C)NC(=O)[C@@H](N)Cc1ccccc1)C(N)=O [FAKFLAKFLKKAL],MIC,[5],65.6 µM
same,MIC,[6],3.28 µM
CC[C@H](C)[C@H](NC(=O)[C@H](CC(C)C)NC(=O)[C@H](CCCCN)NC(=O)[C@H](CCCCN)NC(=O)[C@H](C)NC(=O)[C@H](CC(C)C)NC(=O)[C@H](CCCCN)NC(=O)[C@H](CCCCN)NC(=O)[C@H](CC(C)C)NC(=O)[C@H](CCCCN)NC(=O)[C@H](CCCCN)NC(=O)[C@H](C)NC(=O)[C@H](CC(C)C)NC(=O)[C@H](CCCCN)NC(=O)[C@H](CCCCN)NC(=O)[C@H](C)NC(=O)[C@@H](N)Cc1ccccc1)C(=O)NCC(=O)N[C@@H](C)C(=O)N[C@H](C(=O)N[C@@H](CC(C)C)C(=O)N[C@@H](CCCCN)C(=O)N[C@H](C(=O)O)C(C)C)C(C)C [FAKKLAKKLKKLAKKLIGAVLKV],MIC,[5],> 78.8 µM
same,MIC,[6],39.4 µM
CC(C)C[C@H](NC(=O)[C@H](C)NC(=O)[C@H](CCCCN)NC(=O)[C@H](CCCCN)NC(=O)[C@H](CC(C)C)NC(=O)[C@H](C)NC(=O)[C@H](CCCCN)NC(=O)[C@H](C)NC(=O)[C@H](CC(C)C)NC(=O)[C@H](CC(C)C)NC(=O)[C@H](CCCCN)NC(=O)[C@H](C)NC(=O)[C@@H](N)Cc1ccccc1)C(N)=O [FAKLLAKALKKAL],MIC,[5],7.07 µM
same,MIC,[6],3.53 µM
CC(C)C[C@H](NC(=O)[C@H](CCCCN)NC(=O)[C@H](CCCCN)NC(=O)[C@H](C)NC(=O)[C@H](CC(C)C)NC(=O)[C@H](CCCCN)NC(=O)[C@H](C)NC(=O)[C@H](Cc1c[nH]c2ccccc12)NC(=O)[C@H](CC(C)C)NC(=O)[C@H](CCCCN)NC(=O)[C@H](C)NC(=O)[C@@H](N)Cc1ccccc1)C(N)=O [FAKLWAKLAKKL],MIC,[5],35.3 µM
same,MIC,[6],70.6 µM
CC[C@H](C)[C@H](NC(=O)CNC(=O)[C@H](C)NC(=O)[C@H](C)NC(=O)[C@@H](NC(=O)[C@H](CCCCN)NC(=O)[C@H](CC(C)C)NC(=O)[C@@H](NC(=O)[C@@H]1CCCN1C(=O)CNC(=O)[C@@H](NC(=O)[C@@H](N)Cc1ccccc1)C(C)C)C(C)C)[C@@H](C)CC)C(=O)N[C@@H](CC(C)C)C(=O)N1CCC[C@H]1C(=O)N[C@H](C(=O)N[C@@H](C)C(=O)N[C@H](C(=O)N[C@H]1CSSC[C@@H](C(=O)O)NC(=O)[C@H](CCCCN)NC(=O)[C@H](CCCCN)NC(=O)[C@H](Cc2ccc(O)cc2)NC(=O)[C@H]([C@@H](C)CC)NC(=O)[C@H](CCCCN)NC1=O)[C@@H](C)CC)[C@@H](C)O [FVGPVLKIAAGILPTAICKIYKKC],MIC,[1],0.459 µM
same,MIC,[2],3.68 µM
same,MIC,Bacillus subtilis,0.919 µM
same,MIC,[7],0.919 µM
CC(C)C[C@H](NC(=O)CN)C(=O)N[C@@H](CC(C)C)C(=O)N[C@@H](CC(=O)O)C(=O)N[C@@H](CC(C)C)C(=O)N[C@@H](CC(C)C)C(=O)N[C@@H](CCCCN)C(=O)N[C@@H](CC(C)C)C(=O)N[C@@H](CC(C)C)C(=O)N[C@@H](CC(C)C)C(=O)N[C@@H](CCCCN)C(=O)N[C@@H](C)C(=O)N[C@@H](C)C(=O)NCC(=O)O [GLLDLLKLLLKAAG],MIC,[1],10 µM
same,MIC,[3],66 µM
same,MIC,[8],35 µM
CC[C@H](C)[C@H](NC(=O)[C@H](CCCN=C(N)N)NC(=O)[C@@H](N)CCCCN)C(=O)N[C@@H](C)C(=O)N[C@@H](CCC(N)=O)C(=O)N[C@@H](CCCN=C(N)N)C(=O)N[C@H](C(=O)N[C@@H](CCCCN)C(=O)N[C@@H](CC(=O)O)C(=O)N[C@@H](Cc1ccccc1)C(=O)N[C@@H](CC(C)C)C(=O)N[C@@H](CCCN=C(N)N)C(=O)O)[C@@H](C)CC [KRIAQRIKDFLR],MIC,[9],20 µM
same,MIC,[4],10 µM
same,MIC,[8],3.24 µM
same,MIC,[10],≥ 40 µM
CC[C@H](C)[C@H](NC(=O)[C@H](CCCN=C(N)N)NC(=O)[C@H](CCC(N)=O)NC(=O)[C@H](CCCCN)NC(=O)[C@@H](NC(=O)[C@H](CCCN=C(N)N)NC(=O)[C@@H](N)CCCCN)[C@@H](C)CC)C(=O)N[C@@H](CCCCN)C(=O)N[C@@H](CC(=O)O)C(=O)N[C@@H](Cc1ccccc1)C(=O)N[C@@H](CC(C)C)C(=O)N[C@@H](CCCN=C(N)N)C(=O)O [KRIKQRIKDFLR],MIC,[9],20 µM
same,MIC,[4],5 µM
same,MIC,[8],2.5 µM
same,MIC,[10],20 µM
CC(C)C[C@@H]1NC(=O)CNC(=O)[C@H]([C@@H](C)O)NC(=O)[C@@H]2CCCN2C(=O)[C@H](CC(C)C)NC(=O)CNC(=O)[C@H](CC(N)=O)NC(=O)[C@H](CC(N)=O)NC(=O)[C@H](Cc2ccc(O)cc2)NC(=O)[C@H](C(C)C)NC(=O)[C@H](CCCN=C(N)N)NC(=O)[C@@H](NC(=O)[C@H](CCCN=C(N)N)NC(=O)[C@H](Cc2cnc[nH]2)NC(=O)[C@H](CCCCN)NC(=O)[C@H](CCCCN)NC(=O)[C@H](CCCN=C(N)N)NC(=O)[C@@H](N)CCCCN)CSSC[C@@H](C(N)=O)NC(=O)[C@H](Cc2c[nH]c3ccccc23)NC(=O)[C@H](CCCN=C(N)N)NC(=O)[C@H](Cc2ccc(O)cc2)NC1=O [KRKKHRCRVYNNGLPTGLYRWC],MIC,[6],1.1 µM
CC(C)C[C@H](NC(=O)CNC(=O)[C@H](C)NC(=O)[C@@H](NC(=O)[C@H](CC(N)=O)NC(=O)[C@H](CO)NC(=O)[C@H](CC(C)C)NC(=O)[C@@H](N)CC(C)C)C(C)C)C(=O)N[C@@H](CC(C)C)C(=O)N[C@@H](CCCCN)C(=O)N[C@@H](CCC(N)=O)C(=O)N[C@@H](Cc1ccccc1)C(=O)N[C@@H](C)C(=O)N[C@@H](CCCCN)C(=O)O [LLSNVAGLLKQFAK],MIC,[1],85.2 µM
same,MIC,[4],42.6 µM
same,MIC,[8],5.33 µM
same,MIC,[11],≥ 85.2 µM
CC[C@H](C)[C@H](NC(=O)[C@H](CO)NC(=O)[C@H](C)NC(=O)[C@@H](NC(=O)[C@H](CCCCN)NC(=O)[C@H](CCCCN)NC(=O)[C@H](Cc1c[nH]c2ccccc12)NC(=O)[C@@H](N)CC(N)=O)[C@@H](C)CC)C(=O)NCC(=O)N[C@@H](CCCCN)C(=O)N[C@@H](CCC(=O)O)C(=O)N[C@H](C(=O)N[C@@H](CC(C)C)C(=O)N[C@@H](CCCCN)C(=O)N[C@@H](C)C(=O)N[C@@H](CC(C)C)C(N)=O)C(C)C [NWKKIASIGKEVLKAL],MIC,Bacillus subtilis,≥ 46 µM
same,MIC,Escherichia coli,21 µM
CC[C@H](C)[C@H](NC(=O)[C@H](C)NC(=O)[C@H](CCCN=C(N)N)NC(=O)[C@H](Cc1ccc(O)cc1)NC(=O)[C@H](CC(C)C)NC(=O)[C@H](CC(N)=O)NC(=O)[C@H](Cc1ccc(O)cc1)NC(=O)CNC(=O)[C@H](C)NC(=O)[C@@H](NC(=O)[C@@H](NC(=O)[C@@H](NC(=O)[C@H](CCCN=C(N)N)NC(=O)[C@@H](NC(=O)[C@@H](NC(=O)[C@@H](NC(=O)[C@@H]1CCCN1C(=O)[C@H](Cc1c[nH]c2ccccc12)NC(=O)[C@H](Cc1ccccc1)NC(=O)[C@H](CCCN=C(N)N)NC(=O)[C@H](CCCCN)NC(=O)[C@@H](NC(=O)[C@@H](N)CCCN=C(N)N)[C@@H](C)CC)C(C)C)C(C)C)[C@@H](C)CC)[C@@H](C)O)C(C)C)C(C)C)C(=O)N[C@@H](CCCCN)C(=O)N[C@@H](CCCCN)C(=O)O [RIKRFWPVVIRTVVAGYNLYRAIKK],MIC,[1],3.08 µM
same,MIC,Bacillus subtilis,1.54 µM
same,MIC,[7],0.769 µM
same,MIC,[8],1.15 µM
CC[C@H](C)[C@H](NC(=O)[C@@H](NC(=O)[C@@H](NC(=O)[C@@H]1CCCN1C(=O)[C@H](Cc1c[nH]c2ccccc12)NC(=O)[C@H](Cc1ccccc1)NC(=O)[C@H](CCCN=C(N)N)NC(=O)[C@H](CCCCN)NC(=O)[C@@H](NC(=O)[C@@H](N)CCCN=C(N)N)[C@@H](C)CC)C(C)C)C(C)C)C(=O)N[C@@H](CCCN=C(N)N)C(=O)N[C@H](C(=O)N[C@H](C(=O)N[C@H](C(=O)N[C@@H](C)C(=O)NCC(=O)N[C@@H](Cc1ccc(O)cc1)C(=O)N[C@@H](CC(N)=O)C(=O)N[C@@H](CC(C)C)C(=O)N[C@@H](Cc1ccc(O)cc1)C(=O)O)C(C)C)C(C)C)[C@@H](C)O [RIKRFWPVVIRTVVAGYNLY],MIC,[7],≥ 45.9 µM
same,MIC,[8],61.2 µM
CC(C)C[C@H](NC(=O)[C@H](C)NC(=O)[C@H](Cc1c[nH]c2ccccc12)NC(=O)CNC(=O)[C@H](CCCN=C(N)N)NC(=O)[C@@H](N)CCCN=C(N)N)C(=O)N[C@@H](CCCN=C(N)N)C(=O)N[C@@H](CC(C)C)C(=O)N[C@H](C(=O)N[C@@H](CC(C)C)C(=O)N[C@@H](C)C(=O)N[C@@H](Cc1ccc(O)cc1)C(N)=O)C(C)C [RRGWALRLVLAY],MIC,[3],26 µM and 30 µM

# Reference: DBAASP
